Target: COX-1 (Homo sapiens, UniProt P23219)
Test: COX-1 inhibition, resveratrol versus Japanese knotweed
Type: biochemical
Conditions: pure resveratrol (99%) compared with Japanese knotweed

COX-1, sequence (P23219 24-599): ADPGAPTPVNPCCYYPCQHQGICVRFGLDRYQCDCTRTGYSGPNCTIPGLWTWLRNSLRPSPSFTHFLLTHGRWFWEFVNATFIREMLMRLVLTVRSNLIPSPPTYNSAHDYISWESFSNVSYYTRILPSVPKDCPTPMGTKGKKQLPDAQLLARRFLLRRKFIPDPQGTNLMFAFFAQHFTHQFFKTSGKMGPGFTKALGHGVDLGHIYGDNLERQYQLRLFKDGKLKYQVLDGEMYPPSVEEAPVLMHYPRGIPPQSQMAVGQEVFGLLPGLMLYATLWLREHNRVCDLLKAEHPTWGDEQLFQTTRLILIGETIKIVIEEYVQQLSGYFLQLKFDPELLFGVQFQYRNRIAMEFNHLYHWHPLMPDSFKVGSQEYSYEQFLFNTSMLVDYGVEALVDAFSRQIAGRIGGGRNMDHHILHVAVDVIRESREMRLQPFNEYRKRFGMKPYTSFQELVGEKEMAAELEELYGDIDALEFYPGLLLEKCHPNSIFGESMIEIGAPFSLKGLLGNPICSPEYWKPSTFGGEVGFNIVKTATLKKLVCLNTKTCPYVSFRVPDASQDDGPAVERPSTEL

Oc1ccc(C=Cc2cc(O)cc(O)c2)cc1 [resveratrol]
effectiveness for COX-1: just as effective

— patent US6541045B1, “Herbal composition and method for combating inflammation” (Nutraceutical Corporation, priority 2002, dated 2003)
